Test results: patent publication US9078874B2, “Composition and method for treating cognitive impairments in down syndrom subjects” (Centre National De La Recherche Scientifique—CNRS, priority 2009, dated 2015)
Where two headings read alike, the source gives them in different places.

Legend:
euploid mice = test: Dose-response in the delayed-matching-to-place task (DMTP); assay type: in vivo; settings: 5 mg/kg, 30 min before testing; versus placebo; p<0.05
Description: FIG. 5 depicts results from a dose-response effect study of α5IA. The optimal α5IA promnesiant dose was determined in mice trained in the DMTP task. FIG. 5A: Schematic representation of the DMTP protocol. Each day, mice underwent 1 acquisition trial and 3 retention trials (inter-trial interval was 60 sec). The position of the platform was changed every day, but remained constant within each session.
To determine the optimal dose of α5IA, a dose-response study was performed in euploid mice trained in the delayed-matching-to-place task (DMTP), a classical learning and memory paradigm used to assess the promnesiant effects of drugs, and in particular of GABAA α5 inverse agonists [ref 8, 9, 11].
Experiments were performed in a Morris water maze (MWM). The maze was a 150-cm diameter pool filled with opacified water kept at 19° C. and equipped with a 9 cm diameter platform submerged 1 cm under the water surface. A total of 27 mice were used. Animals were randomly and equally distributed in 3 groups (placebo, α5IA 1 mg/kg, α5IA 5 mg/kg). Training was performed during 7 days. […] Memory assessment was determined by comparing the distance to reach the platform on the first trial (acquisition trial) and the mean distance traveled in subsequent trials (retention trials).

mice = test: Anatomopathology after chronic treatment; assay type: in vivo; settings: 5 mg/kg, 5 injections/week for 5 weeks
Description: FIG. 8 depicts results from a histological lesion study of α5IA after chronic treatment. Following chronic treatment with α5IA (5 mg/kg; 5 injections/week for 5 weeks), different organs were ablated and processed for routine histopathological examination. […] The same negative findings were observed following Periodic acid-Schiff staining of the tissues (not illustrated). […] The size and distribution of urine crystals (not illustrated) appeared to be very similar in the different groups. The scale bar represents 100 μm.
Mice treated for 2 weeks with α5IA and tested in the elevated plus maze were further treated for another 3 weeks. On the last day of treatment, urine samples were collected 2 hours after α5IA or placebo i.p. administration. Urine was stored at −20° C. before analysis. The day after, mice were injected i.p. with an overdose of sodium pentobarbital. Deeply anaesthetized mice received a PBS flush by means of an intracardiac perfusion. For anatomo-pathological examination, 3 additional euploid non-injected mice were also sacrificed. Liver, kidney, brain and spleen were dissected and fixed in a 10% formalin solution. Tissues were then paraffin-embedded and cut using a microtome (5 μm thick sections) before being processed for routine histopathological evaluation (hematein-eosin and Periodic acid-Schiff stainings).

fos protein = test: Cerebral fos immunoreactivity after object recognition acquisition; assay type: in vivo, mice; settings: 5 mg/kg i.p.
Description: The mechanism of action of α5IA was investigated by quantifying neuronal activity by measuring production of fos protein in mice subjected to an object recognition task (exploration of a new environment).
The protocol that was used involved treating mice (placebo or drug). 30 minutes later, the mice were subjected to exploring a new environment, a situation in which the animal acquires and stores information spontaneously. This behavioral stimulation activates c-fos gene, and the expression product of this gene (the Fos protein) is then detected by immunohistochemistry and quantified using dedicated image analysis software. […]
Image analysis was performed as follows: regions of interest (ROIs) were photographed using an Olympus BX61 microscope (x10 objective) and fos immunostaining was quantified using a dedicated image processing software which automatically calculated the proportion of fos-stained tissue (p=stained area/total area), providing an unbiased stereological measurement of fos immunoreactivity. Four ROIs were analyzed: posterior cingulate cortex, perirhinal cortex, dentate gyms and CA1 field of the hippocampus. Each ROI was sampled on several serial sections and results were then averaged to give a reliable quantitative evaluation of local fos immunostaining.

receptor = settings: rats, 3 mg/kg, cited from earlier work
rats = settings: 240 mg/kg for 5 weeks; cited from earlier work
[1] = system: young and elderly subjects; settings: cited from earlier work

## Cc1cc(-c2nnc3c4ccccc4c(OCc4cn(C)nn4)nn23)no1 [α5IA, 3-(5-methylisoxazol-3-yl)-6-[(1-methyl-1,2,3-triazol-4-yl)methyloxy]-1,2,4-triazolo[3,4-a]phthalazine]
Euploid mice
  Performance (distance to platform) between acquisition and retention trials: significantly higher performance
mice
  abnormal crystals in brain, hepatic and renal tissues under polarized light: lack of abnormal crystals
mice; liver, kidney, brain
  histological lesions: did not induce any histological lesions
Fos protein; all brain regions sampled, except the dentate gyrus
  fos immunoreactivity relative to placebo-treated littermates: significant increase of fos
Fos protein; dentate gyrus
  neuronal activity (fos) in the dentate gyrus: not significantly affected
receptor; after 2 h
  receptor occupancy: 80%
receptor; after 8 h
  receptor occupancy: 60%
rats
  renal toxicity: renal pyelitis and papillitis associated with crystals formation
[1]
  tolerability: well tolerated
